Literature values in US8722114B2, “Compositions and methods for increasing human growth hormone levels” (Quality IP Holdings, LLC, priority 2012, dated 2014).

Tests used:
[1] = subcutaneous injection of 0.06 IU, GH deficient subjects

Row | Molecule | Elevation of serum hGH levels (hGH; 30 g, intravenous, in males) | Increase of hGH levels (hGH; intravenous infusion of 183 mg/kg body weight in females) | Mean levels of GH reached [1]
1 | N=C(N)NCCC[C@H](N)C(=O)O [arginine] | 8.6 fold | > 20 fold | 
2 | HGH: human growth hormone, injected subcutaneously in a cited study |  |  | 0.4 ng/mL
